Results from patent publication US12171756B2, “NLRP3 modulators” (Innate Tumor Immunity, Inc., priority 2017, dated 2024).

Key:
[1] = system: IL-1β production in PMA-differentiated THP-1 cells; experiment: Measurement of IL-1β production in PMA-differentiated THP-1 cells (ELISA, 4 hours); format: cell-based, human; conditions: Homo sapiens, THP-1, human IL-1β production, assayed using one or more of the described procedures, read-out: NLRP3 hIL1B IC50
How it was run: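 THP-1 cells differentiated with PMA (10 μg/ml, 24 h), replated at 1×10^6 cells/ml in RPMI with 2% FBS and exposed to compounds (e.g. 0.1–100 μM, 1% DMSO final) for 4 hours. IL-1β in cell-free supernatant quantified by ELISA against vehicle control.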

human TLR7 = target: T1, human TLR7 (Homo sapiens, UniProt Q9NYK1); experiment: In vitro human TLR7 binding reporter assay (HEK-Blue, NF-kB/AP1-inducible SEAP); format: cell-based; conditions: HEK-Blue human TLR7 SEAP reporter cells; activity range classes; read-out: TLR7 Agonist EC50
T1 construct: host or cells: human HEK-Blue cells (HEK293-derived) co-expressing TLR7 and an NF-kB/AP1-inducible SEAP reporter
T1 sequence (Q9NYK1 27-1049): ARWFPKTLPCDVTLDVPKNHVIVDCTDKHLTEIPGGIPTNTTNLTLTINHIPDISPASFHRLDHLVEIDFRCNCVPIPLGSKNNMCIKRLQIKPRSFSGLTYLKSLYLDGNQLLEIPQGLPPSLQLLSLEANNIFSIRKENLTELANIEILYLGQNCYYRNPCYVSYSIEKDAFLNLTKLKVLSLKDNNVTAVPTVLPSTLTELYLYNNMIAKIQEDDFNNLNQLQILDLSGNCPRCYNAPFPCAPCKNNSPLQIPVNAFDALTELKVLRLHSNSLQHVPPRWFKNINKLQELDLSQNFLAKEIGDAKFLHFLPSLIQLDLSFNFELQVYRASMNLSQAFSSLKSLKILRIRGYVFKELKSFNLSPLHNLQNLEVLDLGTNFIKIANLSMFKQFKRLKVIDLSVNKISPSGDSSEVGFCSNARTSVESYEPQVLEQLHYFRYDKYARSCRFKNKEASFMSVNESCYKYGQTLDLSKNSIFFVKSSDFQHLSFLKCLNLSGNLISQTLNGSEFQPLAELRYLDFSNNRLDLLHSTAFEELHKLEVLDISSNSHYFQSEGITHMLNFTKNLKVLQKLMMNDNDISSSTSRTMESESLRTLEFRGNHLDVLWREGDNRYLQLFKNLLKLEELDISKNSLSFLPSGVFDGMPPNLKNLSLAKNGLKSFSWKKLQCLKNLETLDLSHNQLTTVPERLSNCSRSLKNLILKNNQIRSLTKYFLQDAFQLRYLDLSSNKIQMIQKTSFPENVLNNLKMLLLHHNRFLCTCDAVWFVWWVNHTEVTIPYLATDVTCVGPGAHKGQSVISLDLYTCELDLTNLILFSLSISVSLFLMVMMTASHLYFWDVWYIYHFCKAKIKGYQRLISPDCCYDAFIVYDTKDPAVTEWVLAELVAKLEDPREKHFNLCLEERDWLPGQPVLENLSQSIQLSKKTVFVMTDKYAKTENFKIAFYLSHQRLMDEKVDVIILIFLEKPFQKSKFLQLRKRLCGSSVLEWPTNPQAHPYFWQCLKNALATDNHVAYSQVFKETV
How it was run: (§1)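 HEK-Blue cells expressing human TLR7 or TLR8 with NF-kB/AP1-inducible SEAP reporter, plated 24 h, then compound-treated 18 h at 37° C, 5% CO2. EC50 normalized to 100% Ymax set by 50 μM reference standard.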

human TLR8 = target: T2, human TLR8 (Homo sapiens, UniProt Q9NR97); experiment: In vitro human TLR8 binding reporter assay (HEK-Blue, NF-kB/AP1-inducible SEAP); format: cell-based; conditions: HEK-Blue human TLR8 SEAP reporter cells; activity range classes; read-out: TLR8 Agonist EC50
T2 construct: host or cells: human HEK-Blue cells (HEK293-derived) co-expressing TLR8 and an NF-kB/AP1-inducible SEAP reporter
T2 sequence (Q9NR97 27-1041): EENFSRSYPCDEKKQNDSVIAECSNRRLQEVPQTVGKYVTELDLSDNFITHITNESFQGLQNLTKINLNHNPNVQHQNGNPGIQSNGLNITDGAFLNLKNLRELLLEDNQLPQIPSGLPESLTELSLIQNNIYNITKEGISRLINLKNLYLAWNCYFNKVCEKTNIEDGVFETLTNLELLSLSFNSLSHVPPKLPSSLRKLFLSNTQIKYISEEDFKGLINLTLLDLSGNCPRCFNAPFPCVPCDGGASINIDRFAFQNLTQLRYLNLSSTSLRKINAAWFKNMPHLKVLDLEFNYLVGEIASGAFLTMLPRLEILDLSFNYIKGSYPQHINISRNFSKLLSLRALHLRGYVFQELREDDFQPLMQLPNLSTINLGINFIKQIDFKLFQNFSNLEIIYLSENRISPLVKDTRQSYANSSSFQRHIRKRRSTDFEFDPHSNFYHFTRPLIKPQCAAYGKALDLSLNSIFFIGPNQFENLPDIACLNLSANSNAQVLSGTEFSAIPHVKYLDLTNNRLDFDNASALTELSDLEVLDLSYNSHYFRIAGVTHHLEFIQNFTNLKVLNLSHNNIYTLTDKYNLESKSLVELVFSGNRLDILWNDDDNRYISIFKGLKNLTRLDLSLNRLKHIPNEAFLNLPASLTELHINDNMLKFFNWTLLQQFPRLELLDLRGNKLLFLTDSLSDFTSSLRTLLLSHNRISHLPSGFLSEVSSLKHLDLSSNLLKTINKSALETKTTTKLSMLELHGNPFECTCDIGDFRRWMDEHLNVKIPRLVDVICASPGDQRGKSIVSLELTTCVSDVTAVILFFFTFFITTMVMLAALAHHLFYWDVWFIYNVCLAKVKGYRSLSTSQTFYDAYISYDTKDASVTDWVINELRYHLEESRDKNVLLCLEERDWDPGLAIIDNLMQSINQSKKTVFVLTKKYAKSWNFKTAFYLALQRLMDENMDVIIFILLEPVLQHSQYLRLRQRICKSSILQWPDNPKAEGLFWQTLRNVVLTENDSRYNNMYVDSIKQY
How it was run: as §1

IC50 [1] [µM]	EC50 (human TLR7) [µM]	EC50 (human TLR8) [µM]	SMILES
1.91	> 100	> 100	Nc1cc(N2CCc3ncccc3C2)c2ccc(-c3ccn[nH]3)cc2n1 [Compound 164]
5.05	> 100	> 100	Nc1cc(OCCn2cccn2)c2ccc(-c3ccn[nH]3)cc2n1 [Compound 201]
0.31	> 100	> 100	Nc1cc(N[C@@H]2CCC[C@@H]2O)c2ccc(-n3cccn3)cc2n1 [Compound 295]
2.62	> 100	> 100	Nc1cc(OCC2(CO)CCC2)c2ccc(-c3cccs3)cc2n1 [Compound 334, (1-(((2-amino-7-(thiophen-2-yl)quinolin-4-yl)oxy)methyl)cyclobutyl)methanol]
0.54	> 100	> 100	Nc1cc(NCc2cnco2)c2ccc(-c3ccn[nH]3)cc2n1 [Compound 230]
11.4	> 100	> 100	Nc1cc(OCCN2CCNC2=O)c2ccc(-c3ccn[nH]3)cc2n1 [Compound 198]
2.01	> 100	> 100	CNC(=O)CCNc1cc(N)nc2cc(-c3ccn[nH]3)ccc12 [Compound 139]
0.56	> 100	> 100	CCOCCOc1cc(N)nc2cc(-c3ccn[nH]3)ccc12 [Compound 185]
0.86	> 100	> 100	Nc1cc(N[C@H]2CCC[C@H]2O)c2ccc(-c3ccn[nH]3)cc2n1 [Compound 235]
0.37	> 100	> 100	Nc1cc(N[C@H]2CCC[C@H]2O)c2ccc(-n3cccn3)cc2n1 [Compound 304]
0.7	> 100	> 100	Nc1cc(OCCO)c2ccc(-c3ccn[nH]3)cc2n1 [Compound 178, 2-((2-amino-7-(1H-pyrazol-5-yl)quinolin-4-yl)oxy)ethan-1-ol]
3.02	> 100	> 100	CN(CCO)c1cc(N)nc2cc(-c3ccn[nH]3)ccc12 [Compound 136]
2.86	> 100	> 100	Nc1cc(O[C@H]2COC[C@H]2O)c2ccc(-c3ccn[nH]3)cc2n1 (racemic) [Compound 197]
1.49	> 100	> 100	Nc1cc(NCCCc2cccnc2)c2ccc(-c3ccn[nH]3)cc2n1 [Compound 238]
0.33	> 100	> 100	Nc1cc(NC2CCCOC2)c2ccc(-c3ccn[nH]3)cc2n1 (stereo not drawn) [Compound 279]
0.67	> 100	> 100	Nc1cc(OCCc2ccsc2)c2ccc(-c3cc[nH]n3)cc2n1 [Compound 329, 7-(1H-pyrazol-3-yl)-4-(2-(thiophen-3-yl)ethoxy)quinolin-2-amine]
0.23	> 100	> 100	Nc1cc(N[C@@H]2CCC[C@@H]2O)c2ccc(-c3ccn[nH]3)cc2n1 [Compound 232]
1.1	> 100	> 100	CC(=O)NCCNc1cc(N)nc2cc(-n3cccn3)ccc12 [Compound 306]
4.07	> 100	> 100	Nc1nc2cc(-c3ccn[nH]3)ccc2cc1C1CCOCC1 [Compound 116]
2.56	> 100	> 100	CCN(CCCc1cc2ccc(-c3cc[nH]n3)cc2nc1N)C(C)=O [Compound 112, N-[3-[2-amino-7-(1H-pyrazol-3-yl)quinolin-3-yl]propyl]-N-ethylacetamide]
0.79	> 100	> 100	Nc1nc2cc(-c3cc[nH]n3)ccc2cc1CCCCCO [Compound 101, 5-[2-amino-7-(1H-pyrazol-3-yl)quinolin-3-yl]pentan-1-ol]
5.66	> 100	> 100	Nc1cc(N[C@H]2CC[C@H](O)CC2)c2ccc(-c3ccn[nH]3)cc2n1 [Compound 282]
0.73	> 100	> 100	Nc1cc(NCCc2cccnn2)c2ccc(-c3cc[nH]n3)cc2n1 [Compound 340, 7-(1H-pyrazol-3-yl)-N4-(2-(pyridazin-3-yl)ethyl)quinolin-2,4-diamine]
0.65	> 100	> 100	Nc1cc(NCC(F)(F)c2ccccn2)c2ccc(-n3cccn3)cc2n1 [Compound 299]
2.23	> 100	> 100	CC(CO)(CO)COc1cc(N)nc2cc(-c3ccn[nH]3)ccc12 [Compound 194]
1.38	> 100	> 100	Nc1nc2cc(-c3cc[nH]n3)ccc2cc1CCCCO [Compound 102, 4-[2-amino-7-(1H-pyrazol-3-yl)quinolin-3-yl]butan-1-ol]
0.57	> 100	> 100	Nc1cc(OC[C@@H](O)CO)c2ccc(-c3ccn[nH]3)cc2n1 [Compound 220, (S)-3-((2-amino-7-(1H-pyrazol-5-yl)quinolin-4-yl)oxy)propane-1,2-diol]
